Measurements from patent US6869950B1, “Benzimidazole derivatives” (Fujisawa Pharmaceutical Co., Ltd., priority 1998, dated 2005).

System: not given
Assay: not given
Conditions: not given

melting point [°C]	SMILES
190 to 191	CCCCC#Cc1ccc(Cn2c(C)nc3ccc(C(=O)NS(=O)(=O)CCCCC)cc32)c(Cl)c1 [Compound (44), 1-(2-chloro-4-(1-hexyn-1-yl)benzyl)-2-methyl-6-(1-pentanesulfonylcarbamoyl)benzimidazole]
205 to 207	CCCCCS(=O)(=O)NC(=O)c1ccc2nc(C)n(Cc3ccc(N4CCOCC4)cc3Cl)c2c1 [Compound (71), 1-(2-chloro-4-morpholinobenzyl)-2-methyl-6-(1-pentanesulfonylcarbamoyl)benzimidazole]
202 to 203	CCCNS(=O)(=O)NC(=O)c1ccc2nc(C)n(Cc3ccc(C(F)(F)F)cc3Cl)c2c1 [Compound (74), 1-(2-chloro-4-(trifluoromethyl)benzyl)-2-methyl-6-((N-1-propylaminosulfonyl)carbamoyl)benzimidazole]
175.3 to 176.2	CCCNS(=O)(=O)NC(=O)c1ccc2nc(C)n(Cc3ccc(OCC)cc3Cl)c2c1 [Compound (86), 1-(2-chloro-4-(ethyloxy)benzyl)-2-methyl-6-((N-1-propylaminosulfonyl)carbamoyl)benzimidazole]
176.4 to 179.1	CCCCCOc1ccc(Cn2c(C)nc3ccc(C(=O)NS(=O)(=O)NCCC)cc32)c(Cl)c1 [Compound (89), 1-(2-chloro-4-(pentyloxy)benzyl)-2-methyl-6-((N-1-propylaminosulfonyl)carbamoyl)benzimidazole]
190.5 to 192.2	CCNS(=O)(=O)NC(=O)c1ccc2nc(C)n(Cc3ccc(-c4ccco4)cc3Cl)c2c1 [Compound (91), 1-(2-chloro-4-(2-furyl)benzyl)-6-((N-ethylaminosulfonyl)carbamoyl)-2-methylbenzimidazole]
177.8 to 180.2	CCCNS(=O)(=O)NC(=O)c1ccc2nc(C)n(Cc3ccc(-c4ccco4)cc3Cl)c2c1 [Compound (92), 1-(2-chloro-4-(2-furyl)benzyl)-2-methyl-6-((N-1-propylaminosulfonyl)carbamoyl)benzimidazole]

System: db/db mice
Assay: Activity of decreasing blood sugar using db/db mice
Type: in vivo
Conditions: female db/db mice, 1 mg/kg, compound mixed with powdered chow, 14 days; difference between db/db and +/+ mouse defined as 100%
Description: <Activity of Decreasing Blood Sugar Using db/db Mice>
• 1-(2-Chloro-4-(n-pentyloxy)benzyl)-2-methyl-6-((4-methylbenzene)sulfonylcarbamoyl)benzimidazole—Compound(15) • 6-((N-1-butylaminosulfonyl)carbamoyl)-1-(2-chloro-4-phenylbenzyl)-2-methylbenzimidazole—Compound(76) Animal Used
Five-week-old female mice [C57BL/KsJ-dbm db+/db+, C57BL/KsJ-dbm +m/+m (Jackson Laboratory)] were purchased, and were kept for 2 to 3 weeks. Then, these mice were used in the test.
A test compound was mixed with a powdered chow (CE-2, made by Nippon Clea) using a mortar. The mixing ratio was 0.01%. The mixed chow was changed twice a week for each group. The feed amount and the remaining amount were recorded, and the intake was calculated from the difference therebetween.
The female db/db mice were grouped according to the body weight, the plasma glucose, and the plasma triglyceride concentrations. Then, the mixture containing the test compound was administered to the mice for 14 days (from 8 to 10 weeks old). In the morning on day 7 and day 14, blood was collected from the orbital venous plexus using heparinized glass capillary tubes (Chase Heparinized Capillary Tubes), and a plasma fraction was obtained through centrifugal separation. Plasma glucose, triglyceride, and insulin concentrations were measured on day 0 and day 14. Plasma glucose and triglyceride concentrations were measured on day 7. The body weight was measured on day 0, day 7, and day 14. After the final collection of the blood, the mice were killed using CO2 gas.
The plasma glucose was measured by a glucose oxidase method (Glucose CII-Test Wako made by Wako Pure Chemical Industries, Ltd.) using from 10 to 15 μl of plasma. The plasma triglyceride concentration was measured by a GPO-p-chlorophenol method (Triglyceride G-Test Wako made by Wako Pure Chemical Industries, Ltd.) or a GPO-DAOS method (Triglyceride E-Test Wako) using from 10 to 15 μl of plasma. The above-mentioned measurements were conducted immediately after the blood collection. The plasma insulin concentration was measured by radioimmunoassay method (Phadesef Insulin RIA Kit made by Cabi Pharmacia) using 20 μl of plasma (which can be stored at −20° C.).
The difference in the plasma glucose and the plasma triglyceride concentrations between the db/db mouse and the +/+ mouse was defined as 100%, and the rate (%) of decrease in the plasma glucose and the plasma triglyceride concentrations of the group to which the test compound was administered was calculated. […]

SMILES	rate of decrease in the plasma glucose [%]	rate of decrease in the plasma triglyceride [%]
CCCCCOc1ccc(Cn2c(C)nc3ccc(C(=O)NS(=O)(=O)c4ccc(C)cc4)cc32)c(Cl)c1 [Compound (15), 1-(2-chloro-4-(n-pentyloxy)benzyl)-2-methyl-6-((4-methylbenzene)sulfonylcarbamoyl)benzimidazole]	79	69
CCCCNS(=O)(=O)NC(=O)c1ccc2nc(C)n(Cc3ccc(-c4ccccc4)cc3Cl)c2c1 [Compound (76), 6-((N-1-butylaminosulfonyl)carbamoyl)-1-(2-chloro-4-phenylbenzyl)-2-methylbenzimidazole]	71	98
